Measurements as given in patent publication US20260138988A1, “Spiropyrrolidine Derived Antiviral Agents” (Enanta Pharmaceuticals, Inc., priority 2021, published 2026).
Where two headings read alike, the source gives them in different places.

Columns and labels:
SARS-CoV-2 3CL-protease = SARS-CoV-2 3CL-protease (Severe acute respiratory syndrome coronavirus 2, UniProt P0DTD1); test: SARS-CoV-2 3C-Like (3CL) Protease Fluorescence Assay (FRET); format: biochemical; conditions: test compounds 0-10 μM, duplicate
[1] = test system: 229E human corona virus (hCoV); test: 229E live virus assay (MRC-5 cells, CPE, ATPlite readout); format: cell-based, hCoV-229E; conditions: Human coronavirus 229E, MRC5, 144 h, read-out: 229E EC50
[2] = IC50, SARS-CoV-2 3CL-protease 10 nM
[3] = hCoV-229E in MRC-5 cells, MOI 0.05, 6 days at 34° C., ATPlite, run in duplicate
[4] = SARS-CoV-2 3CL-protease 10 nM, read-out: IC50

| Structure (SMILES) | EC50 [1, 3] | IC50 (SARS-CoV-2 3CL-protease; [4]) | further results |
| --- | --- | --- | --- |
| C[C@H](NC(=O)C(F)(F)C(F)(F)F)C(=O)N(C)[C@@H](CC(C)(C)C)C(=O)N1C[C@]2(C[C@H]1C#N)C(=O)Nc1ccccc12 [Example 133] | < 100 nM | – | IC50 (SARS-CoV-2 3CL-protease; [2]): < 100 nM |
| C[C@@H](C(=O)N(C)[C@@H](CC(C)(C)C)C(=O)N1C[C@]2(C[C@H]1C#N)C(=O)Nc1ccccc12)N1CCCC1=O [Example 152] | 100 to 1000 nM | 100 to 1000 nM | – |
| [2H]C([2H])([2H])N(C(=O)[C@H](CC1CC1)NC(=O)c1ccc(F)cc1)[C@@H](CC1CC1)C(=O)N1C[C@]2(C[C@H]1C#N)C(=O)Nc1ccccc12 [Example 140] | < 100 nM | < 100 nM | – |
| CC(C)[C@@H](NC(=O)OCc1ccccc1)C(=O)N[C@@H](CC(C)(C)C)C(=O)N1C[C@]2(C[C@H]1C#N)C(=O)Nc1ccccc12 [Example 87] | – | – | EC50 [1]: > 1000 nM |
| CC(C)C[C@@H](C(=O)N1C[C@]2(C[C@H]1C#N)C(=O)Nc1ccccc12)N(C)C(=O)[C@@H]1CCCN1C(C)C [Example 161] | < 100 nM | < 100 nM | – |
| Cc1cc(C(=O)N[C@@H](C)C(=O)N(C)[C@@H](CC(C)C)C(=O)N2C[C@]3(C[C@H]2C#N)C(=O)Nc2ccccc23)no1 [Example 166] | < 100 nM | < 100 nM | – |
| Cc1cccc(C)c1C(=O)N[C@@H](C)C(=O)N(C)[C@@H](CC(C)C)C(=O)N1C[C@]2(C[C@H]1C#N)C(=O)Nc1ccccc12 [Example 148] | < 100 nM | < 100 nM | – |
| CC(C)C[C@@H](C(=O)N1C[C@]2(C[C@H]1C#N)C(=O)Nc1ccccc12)N(C)C(=O)[C@H](C)NC(=O)c1ccc(F)c(F)c1 [Example 165] | < 100 nM | < 100 nM | – |
| C[C@H](NC(=O)c1ccc(F)cc1F)C(=O)N(C)[C@@H](CC(C)(C)C)C(=O)N1C[C@]2(C[C@H]1C#N)C(=O)Nc1ccccc12 [Example 154] | < 100 nM | < 100 nM | – |
| Cc1ncc(C(=O)N[C@@H](C)C(=O)N(C)[C@@H](CC(C)C)C(=O)N2C[C@]3(C[C@H]2C#N)C(=O)Nc2ccccc23)s1 [Example 163] | < 100 nM | < 100 nM | – |
| C[C@H](NC(=O)c1ccc(OC(F)(F)F)cc1)C(=O)N(C)[C@@H](CC(C)(C)C)C(=O)N1C[C@]2(C[C@H]1C#N)C(=O)Nc1ccccc12 [Example 153] | < 100 nM | < 100 nM | – |
| CC(C)C[C@@H](C(=O)N1C[C@]2(C[C@H]1C#N)C(=O)Nc1ccccc12)N(C)C(=O)[C@H](C)NC(=O)c1ccc(F)c(-c2ccc(F)cc2)c1 [Example 151] | 100 to 1000 nM | < 100 nM | – |
| CC(C)C[C@@H](C(=O)N1C[C@]2(C[C@H]1C#N)C(=O)Nc1ccccc12)N(C)C(=O)[C@H](C)NC(=O)C(F)(F)C(F)(F)C(F)(F)F [Example 137] | – | – | IC50 (SARS-CoV-2 3CL-protease; [2]): < 100 nM; EC50 [1]: < 100 nM |
| CC(C)C[C@H]1C(=O)N2C[C@]3(C[C@H]2C#N)C(=O)Nc2ccc(cc23)CCCCC[C@H](NC(=O)OC(C)(C)C)C(=O)N1C [Example 373] | 100 to 1000 nM | < 100 nM | – |
| CC(C)OC(=O)N[C@H](C(=O)N(C)[C@@H](Cc1ccccc1)C(=O)N1C[C@]2(C[C@H]1C#N)C(=O)Nc1ccccc12)C(C)(C)C [Example 31] | < 100 nM | – | – |
| CC(C)C[C@@H](C(=O)N1C[C@]2(C[C@H]1C#N)C(=O)Nc1ccccc12)N(C)C(=O)[C@H](C)NC(=O)C(F)(F)F [Example 135] | < 100 nM | – | – |
| C[C@H](NC(=O)C(F)(F)C(F)(F)F)C(=O)N(C)[C@@H](CC1CC1)C(=O)N1C[C@]2(C[C@H]1C#N)C(=O)Nc1ccccc12 [Example 205] | – | < 100 nM | – |
| C[C@H](NC(=O)C(F)(F)F)C(=O)N(C)[C@@H](CC1CC1)C(=O)N1C[C@]2(C[C@H]1C#N)C(=O)Nc1ccccc12 [Example 203] | – | < 100 nM | – |
| CCN(C(=O)[C@H](C)NC(=O)c1ccc(OC(F)(F)F)cc1)[C@@H](CC(C)C)C(=O)N1C[C@]2(C[C@H]1C#N)C(=O)Nc1ccccc12 [Example 361] | – | < 100 nM | – |
| CC(C)C[C@@H](C(=O)N1C[C@]2(C[C@H]1C#N)C(=O)Nc1ccccc12)N(C)C(=O)[C@H](C)NC(=O)C(C)(F)F [Example 273] | – | < 100 nM | – |
| CN(C(=O)[C@@H]1CC[C@@H](C(F)(F)F)N1)[C@@H](CC(C)(C)C)C(=O)N1C[C@]2(C[C@H]1C#N)C(=O)Nc1ccccc12 [Example 233] | – | < 100 nM | – |
| C[C@H](NC(=O)C(F)(F)C(F)(F)F)C(=O)N(C)[C@@H](CC(C)(C)C)C(=O)N1C[C@]2(C[C@H]1C#N)C(=O)N(C)c1ccccc12 [Example 348] | – | < 100 nM | – |
| CC(C)N1C[C@]2(C[C@H]1C(=O)N(C)[C@@H](CC(C)(C)C)C(=O)N1C[C@]3(C[C@H]1C#N)C(=O)Nc1ccccc13)C(=O)Nc1ccccc12 [Example 183] | – | 100 to 1000 nM | – |

| Structure (SMILES) | EC50 [1, 3] | IC50 (SARS-CoV-2 3CL-protease; [4]) | further results |
| --- | --- | --- | --- |
| C[C@H](NC(=O)C(F)(F)C(F)(F)F)C(=O)N(C)[C@@H](CC1CC1)C(=O)N1C[C@]2(C[C@H]1C#N)C(=O)Nc1ccc(Br)cc12 [Example 167] | – | < 100 nM | – |
| CC(C)C[C@@H](C(=O)N1C[C@]2(C[C@H]1C#N)C(=O)Nc1ccccc12)N(C)C(=O)[C@@H]1C[C@H]2C[C@H]2N1C [Example 260] | – | < 100 nM | – |
| C[C@H](NC(=O)c1cc(F)c2nn(C3CC3)cc2c1)C(=O)N(C)[C@@H](CC(C)(C)C)C(=O)N1C[C@]2(C[C@H]1C#N)C(=O)Nc1ccccc12 [Example 220] | – | < 100 nM | – |
| C[C@H](NC(=O)c1ccc(C(F)(F)F)cc1)C(=O)N(C)[C@@H](CC(C)(C)C)C(=O)N1C[C@]2(C[C@H]1C#N)C(=O)Nc1ccccc12 [Example 286] | – | < 100 nM | – |
| CC(C)C[C@@H](C(=O)N1C[C@]2(C[C@H]1C#N)C(=O)Nc1ccccc12)N(C)C(=O)[C@H](C)NC(=O)c1cc2occc2cc1F [Example 188] | – | < 100 nM | – |
| C[C@H](NC(=O)C(F)(F)C(F)(F)F)C(=O)N(C)[C@@H](CC(C)(C)C)C(=O)N1C[C@]2(C[C@H]1C#N)C(=O)N(Cl)c1ccc(Cl)cc12 [Example 172] | – | < 100 nM | – |
| CC(C)C[C@@H](C(=O)N1C[C@]2(C[C@H]1C#N)C(=O)Nc1ccccc12)N(C)C(=O)[C@H](C)NC(=O)C(F)(F)C(F)(F)C(F)(F)C(F)(F)F [Example 144] | – | – | IC50 (SARS-CoV-2 3CL-protease; [2]): < 100 nM |
| CC(C)(C)C[C@H](NC(=O)[C@H](CC1CC1)NC(=O)c1cc(F)c(F)c(F)c1)C(=O)N1C[C@]2(C[C@H]1C#N)C(=O)Nc1ccccc12 [Example 312] | – | < 100 nM | – |
| CN(C(=O)[C@H](CC1CC1)NC(=O)C(F)(F)C(F)(F)F)[C@@H](CC1CC1)C(=O)N1C[C@]2(C[C@H]1C#N)C(=O)Nc1ccccc12 [Example 347] | – | < 100 nM | – |
| CC(C)C[C@@H](C(=O)N1C[C@]2(C[C@H]1C#N)C(=O)Nc1ccccc12)N(C)C(=O)[C@H](C)NC(=O)c1c(F)c(F)c(F)c(F)c1F [Example 301] | – | < 100 nM | – |
| CC(C)C[C@@H](C(=O)N1C[C@]2(C[C@H]1C#N)C(=O)Nc1ccccc12)N(C)C(=O)[C@H](C)NC(=O)c1cc2[nH]ccc2cc1F [Example 186] | – | < 100 nM | – |
| C[C@H](NC(=O)c1ccc(F)cc1)C(=O)N[C@@H](CC(C)(C)C)C(=O)N1C[C@]2(C[C@H]1C#N)C(=O)Nc1ccccc12 [Example 218] | – | < 100 nM | – |
| CC(C)C[C@@H](C(=O)N1C[C@]2(C[C@H]1C#N)C(=O)Nc1ccccc12)N(C)C(=O)[C@@H]1[C@@H]2C[C@@H]2CN1C(C)C [Example 251] | – | 100 to 1000 nM | – |
| C[C@H](NC(=O)c1cccc2cc(Cl)ccc12)C(=O)N(C)[C@@H](CC(C)(C)C)C(=O)N1C[C@]2(C[C@H]1C#N)C(=O)Nc1ccccc12 [Example 284] | – | < 100 nM | – |
| CC(C)C[C@H](NC(=O)OC1CCC1)C(=O)N[C@@H](CC(C)(C)C)C(=O)N1C[C@]2(C[C@H]1C#N)C(=O)Nc1ccccc12 [Example 250] | – | < 100 nM | – |
| CC(C)(C)C[C@H](NC(=O)[C@H](CC1CC1)NC(=O)c1ccc(C2CCCCC2)cc1)C(=O)N1C[C@]2(C[C@H]1C#N)C(=O)Nc1ccccc12 [Example 303] | – | < 100 nM | – |
| CC(C)(C)C[C@H](NC(=O)[C@H](CC1CC1)NC(=O)C1CCCCC1)C(=O)N1C[C@]2(C[C@H]1C#N)C(=O)Nc1ccccc12 [Example 327] | – | < 100 nM | – |
| CC(C)(C)C[C@H](NC(=O)C(F)(F)F)C(=O)N[C@@H](CC(C)(C)C)C(=O)N1C[C@]2(C[C@H]1C#N)C(=O)Nc1ccccc12 [Example 226] | – | < 100 nM | – |
| C[C@H](NC(=O)c1ccc(Cl)c(Cl)c1)C(=O)N(C)[C@@H](CC(C)(C)C)C(=O)N1C[C@]2(C[C@H]1C#N)C(=O)Nc1ccccc12 [Example 212] | – | < 100 nM | – |
| C[C@H](NC(=O)OCc1ccccc1)C(=O)N(C)[C@@H](Cc1ccccc1)C(=O)N1C[C@]2(C[C@H]1C#N)C(=O)Nc1ccccc12 [Example 274] | – | < 100 nM | – |
| CCN(C(=O)[C@H](C)NC(=O)C(F)(F)C(F)(F)F)[C@@H](CC(C)C)C(=O)N1C[C@]2(C[C@H]1C#N)C(=O)Nc1ccccc12 [Example 366] | – | < 100 nM | – |
| CCN1CC2(CCCC2)C[C@H]1C(=O)N(C)[C@@H](CC(C)C)C(=O)N1C[C@]2(C[C@H]1C#N)C(=O)Nc1ccccc12 [Example 257] | – | < 100 nM | – |
| CC(C)C[C@@H](C(=O)N1C[C@]2(C[C@H]1C#N)C(=O)Nc1ccccc12)n1cccc(NS(=O)(=O)C2CC2)c1=O [Example 353] | – | < 100 nM | – |
